Results on four molecules are retold here after US20240002385A1, “PIPERIDINYL-METHYL-PURINE AMINE D-TARTARIC ACID SALTS, CRYSTALLINE FORMS, AND THEIR USE IN TREATING MEDICAL DISEASES AND CONDITIONS” (K36 Therapeutics, Inc., priority 2022, published 2024).

Format in all cases: physicochemical
A short description of series [1]: Water solubility of crystalline form at pH 6.8 and 37° C. The following applies: aqueous buffer, pH 6.8, 37° C.
Series [2] can be described thus: Six-month stability study at elevated temperature and relative humidity (40° C.±2° C., 75%±5% RH). As to conditions: 40° C./75% RH. As for the experimental part:
A six-month stability study was conducted on the crystalline form of (S)-1-((R)-3-amino-1-(4-((6-amino-9H-purin-9-yl)methyl)-6-(2,5-difluoro-4-methoxyphenyl) pyridin-3-yl)piperidin-3-yl)-2,2-difluoroethan-1-ol D-tartaric acid salt having an XRDP pattern as set forth in Example 4. In particular, an aliquot of the crystalline (S)-1-((R)-3-amino-1-(4-((6-amino-9H-purin-9-yl)methyl)-6-(2,5-difluoro-4-methoxyphenyl) pyridin-3-yl)piperidin-3-yl)-2,2-difluoroethan-1-ol D-tartaric acid salt was stored for six months at a temperature of 40° C.±2° C. where the relative humidity was 75%±5%. A sample of the crystalline (S)-1-((R)-3-amino-1-(4-((6-amino-9H-purin-9-yl)methyl)-6-(2,5-difluoro-4-methoxyphenyl) pyridin-3-yl)piperidin-3-yl)-2,2-difluoroethan-1-ol D-tartaric acid salt was analyzed at the following time points in the experiment: 0 days (i.e., at the start of the experiment), 1 month, 3 months, and 6 months. The following parameters were evaluated at each time point: physical appearance, water content by coulometric Karl Fischer (CKF) determination, purity by ultra-performance liquid chromatography (UPLC), and total amount of related substances. XRPD analysis was performed on a compound sample at time points 0 days and at 6 months.

Series [3] can be described thus: Salt form observations: hydrate formation and hygroscopicity.
Series [4] can be described thus: One year stability study (25° C.±2° C., 60%±5% RH). The following applies: 25° C./60% RH. As for the experimental part: A one-year stability study was conducted on the crystalline form of (S)-1-((R)-3-amino-1-(4-((6-amino-9H-purin-9-yl)methyl)-6-(2,5-difluoro-4-methoxyphenyl) pyridin-3-yl)piperidin-3-yl)-2,2-difluoroethan-1-ol D-tartaric acid salt having an XRDP pattern as set forth in Example 4. In particular, an aliquot of the crystalline (S)-1-((R)-3-amino-1-(4-((6-amino-9H-purin-9-yl)methyl)-6-(2,5-difluoro-4-methoxyphenyl) pyridin-3-yl)piperidin-3-yl)-2,2-difluoroethan-1-ol D-tartaric acid salt was stored for 1 year at a temperature of 25° C.±2° C. where the relative humidity was 60%±5%. A sample of the crystalline (S)-1-((R)-3-amino-1-(4-((6-amino-9H-purin-9-yl)methyl)-6-(2,5-difluoro-4-methoxyphenyl) pyridin-3-yl)piperidin-3-yl)-2,2-difluoroethan-1-ol D-tartaric acid salt was analyzed at the following time points in the experiment: 0 days (i.e., at the start of the experiment), 1 month, 3 months, 6 months, 9 months, and 12 months. The following parameters were evaluated at each time point: physical appearance, water content by coulometric Karl Fischer (CKF) determination, purity by ultra-performance liquid chromatography (UPLC), and total amount of related substances. XRPD analysis was performed on a compound sample at time points 0 days and at 12 months.

Series [5] in a line: Water content by Karl Fischer titration. On the procedure:
The title compound was analyzed for water content by Karl Fischer (KF) titration, and determined to have a water content of 1.22 wt %. Karl Fischer (KF) titration for water determination was performed using a Mettler Toledo C20S Coulometric KF Titrator equipped with a current generator cell with a diaphragm, and a double-platinum-pin electrode. The range of detection of the instrument is 1 ppm to 5% water. Aquastar™ CombiCoulomat fritless reagent was used in both the anode and cathode compartments. Samples of approximately 0.03-0.10 g were dissolved in the anode compartment and titrated until the solution potential dropped below 100 mV. Hydranal 1 wt % water standard was used for validation prior to sample analysis.

The nature of series [6]: Analysis of aqueous solubility (water and fasted state simulated intestinal fluid). The following applies: 37° C.; for solubility at 24 h: thermodynamic from solid, read-out: Test Compound Solubility. On the procedure:
Solubility of test compounds in two different liquids was evaluated: (a) water and (b) fasted state simulated intestinal fluid. Test compounds analyzed were: • crystalline (S)-1-((R)-3-amino-1-(4-((6-amino-9H-purin-9-yl)methyl)-6-(2,5-difluoro-4-methoxyphenyl) pyridin-3-yl)piperidin-3-yl)-2,2-difluoroethan-1-ol D-tartaric acid salt, as set forth in Example 4 (hereinafter “Compound A”); • (S)-1-((R)-3-amino-1-(4-((6-amino-9H-purin-9-yl)methyl)-6-(2,5-difluoro-4-methoxyphenyl) pyridin-3-yl)piperidin-3-yl)-2,2-difluoroethan-1-ol fumaric acid salt (hereinafter “Compound B”); • (S)-1-((R)-3-amino-1-(4-((6-amino-9H-purin-9-yl)methyl)-6-(2,5-difluoro-4-methoxyphenyl) pyridin-3-yl)piperidin-3-yl)-2,2-difluoroethan-1-ol free base (hereinafter “Compound C”).
An aliquot of test compound was placed in the liquid at a temperature of 37° C., and then after 24 hours the concentration of dissolved test compound was determined. pH of the solution at 24 hours was also measured.

Series [7] can be described thus: Accelerated stability study (six days, 75% RH, 40° C.). As for the experimental part: An accelerated stability study was conducted on the crystalline form of (S)-1-((R)-3-amino-1-(4-((6-amino-9H-purin-9-yl)methyl)-6-(2,5-difluoro-4-methoxyphenyl) pyridin-3-yl)piperidin-3-yl)-2,2-difluoroethan-1-ol D-tartaric acid salt, prepared as described in Example 1. Approximately 12 mg of solid was placed into a 4-mL vial, and then the vial was covered with a Kimwipe. The vial was stored for six days inside a stability chamber producing a relative humidity of 75% at 40° C.

Series [8] can be described thus: Hygroscopicity by dynamic vapor sorption. As to conditions: transitioned from 5% to 95% relative humidity. On the procedure: The title compound was analyzed for hygroscopicity by dynamic vapor sorption. Dynamic vapor sorption was performed using a Q5000SA. The sample (5-15 mg) was loaded into a metallic quartz sample pan, suspended from a microbalance, and exposed to a humidified stream of nitrogen gas. Weight changes were relative to a matching empty reference pan opposite the sample, suspended from the microbalance. The sample was held for a minimum of 10 min at each humidity level and only progressed to the next humidity level if there was <0.002% change in weight between measurements (interval: 5 s) or 60 min had elapsed. The following program was used: • 1. Equilibration at 50% RH • 2. 50% to 5% (50%, 35%, 20%, and 5%) • 3. 5% to 95%(5%, 20%, 35%, 50%, 65%, 80%, and 95%) • 4. 95% to 5% (95%, 80%, 65%, 50%, 35%, 20%, and 5%) • 5. 5% to 50%(5%, 20%, 35%, and 50%).

Setting [9] is: fassif, fasted state simulated intestinal fluid.
Where [10] appears, read: fasted state simulated intestinal fluid.

Structures are written as SMILES. ≈ marks a conversion by molar mass, not a printed value.

One may read the solubility as the concentration that dissolves in the medium under given conditions. In series [1] (after 30 minutes), `COc1cc(F)c(-c2cc(Cn3cnc4c(N)ncnc43)c(N3CCC[C@](N)([C@H](O)C(F)F)C3)cn2)cc1F.O=C(O)C(O)C(O)C(=O)O` [Compound A, (S)-1-((R)-3-amino-1-(4-((6-amino-9H-purin-9-yl)methyl)-6-(2,5-difluoro-4-methoxyphenyl)pyridin-3-yl)piperidin-3-yl)-2,2-difluoroethan-1-ol D-tartaric acid salt] registered a solubility at 30 min greater than 2000 µg/mL. Also, the results for the solubility at 24 h in series [1] (after 24 hours), in series [6] (setting [9]) and in series [6] (water) were greater than 2000 µg/mL, 1600 µg/mL and 2400 µg/mL, respectively. Besides, the “API Purity by UPLC” value came out at 100.0 % area in LC trace in series [2] (1 month); 100.0 % area in LC trace in series [2] (3 months); 100.0 % area in LC trace in series [2] (6 months); 100.0 % area in LC trace in series [2] (day 0); 99.9 % area in LC trace in series [4] (1 month); 100.0 % area in LC trace in series [4] (3 months). Besides, the “API Purity by UPLC” value in series [4] (6 months), in series [4] (9 months), in series [4] (12 months) and in series [4] (day 0) was 100.0 % area in LC trace in each case. For the same molecule, the “Physical Appearance” value in series [2] (1 month) is “white wolid”; in series [2] (3 months), “white wolid”; in series [2] (6 months) it was “white wolid”; in series [2] (day 0), “white wolid”; in series [4] (1 month), “white”; in series [4] (3 months) it was “white”. The “Physical Appearance” value in series [4] (6 months) is “white”; in series [4] (9 months) it was “white”; in series [4] (12 months) it was “white”; in series [4] (day 0) it was “white wolid”. In addition, the “Total Amount of Related Substances by UPLC” value in series [2] (1 month) is listed as 0.05 % w/w; in series [2] (3 months), 0.05 % w/w; in series [2] (6 months), less than 0.05 % w/w; in series [2] (day 0), less than 0.05 % w/w; in series [4] (1 month), 0.05 % w/w; in series [4] (3 months), 0.05 % w/w. The “Total Amount of Related Substances by UPLC” value in series [4] (6 months) is less than 0.05 % w/w; in series [4] (9 months) it was less than 0.05 % w/w; in series [4] (12 months), 0.05 % w/w; in series [4] (day 0), less than 0.05 % w/w. The “Water Content by CKF” value in series [2] (1 month) is given as 0.4 % w/w; in series [2] (3 months), 0.4 % w/w; in series [2] (6 months), 0.4 % w/w; in series [2] (day 0) it was 0.2 % w/w; in series [4] (1 month) it was 0.3 % w/w; in series [4] (3 months), 0.4 % w/w. Moreover, the “Water Content by CKF” value is recorded as 0.3 % w/w in series [4] (6 months), 0.2 % w/w in series [4] (9 months), 0.3 % w/w in series [4] (12 months) and 0.2 % w/w in series [4] (day 0). The “XRPD spectrum after storage versus day 0” value in series [2] (stored for 6 months) and in series [4] (stored for 12 months) was “matched the XRPD spectrum obtained on said compound at the beginning of the stability study” throughout. For the same molecule, the “hydrate formation / anhydrous form” value in series [3] is listed as “could be obtained in anhydrous form”. The hygroscopicity result in series [3] (long-duration stability studies) was “low hygroscopicity”. Besides, in series [5], the “water content by Karl Fischer (KF) titration” value is on record as 1.22 wt %. Moreover, the “pH of Liquid Medium at 24 Hours” value in series [6] (setting [10]) is 5.71; in series [6] (water), 3.59. The “XRPD of recovered salt” value in series [7] (after six days, 75% relative humidity, 40° C.) is “no change of the crystalline form”. Further, the “purity by HPLC” value in series [7] (after the study: six days, 75% relative humidity, 40° C.) is recorded as 99.45 area percent; in series [7] (before the study), 99.53 area percent. Moreover, in series [8], the “increase in weight in dynamic vapor sorption” value came to 4.858%.

In the case of `COc1cc(F)c(-c2cc(Cn3cnc4c(N)ncnc43)c(N3CCC[C@](N)([C@H](O)C(F)F)C3)cn2)cc1F.O=C(O)/C=C/C(=O)O` [Compound B, (S)-1-((R)-3-amino-1-(4-((6-amino-9H-purin-9-yl)methyl)-6-(2,5-difluoro-4-methoxyphenyl)pyridin-3-yl)piperidin-3-yl)-2,2-difluoroethan-1-ol fumaric acid salt], the “hydrate formation / anhydrous form” value in series [3] is listed as “observed to form hydrates”. The solubility at 24 h in series [6] (setting [9]) is 506 µg/mL; in series [6] (water), 488 µg/mL. Besides, the figures for the “pH of Liquid Medium at 24 Hours” value in series [6] (setting [10]) and in series [6] (water) were 6.06 and 4.03, respectively.

For the molecule `COc1cc(F)c(-c2cc(Cn3cnc4c(N)ncnc43)c(N3CCC[C@](N)([C@H](O)C(F)F)C3)cn2)cc1F` [Compound C, (S)-1-((R)-3-amino-1-(4-((6-amino-9H-purin-9-yl)methyl)-6-(2,5-difluoro-4-methoxyphenyl)pyridin-3-yl)piperidin-3-yl)-2,2-difluoroethan-1-ol free base], the solubility at 24 h was 298 µg/mL (≈ 545 µM) in series [6] (setting [9]) and 0.2 µg/mL (≈ 0.366 µM) in series [6] (water). Also, the “pH of Liquid Medium at 24 Hours” value in series [6] (setting [10]) is 6.61; in series [6] (water), 6.92.

With `COc1cc(F)c(-c2cc(Cn3cnc4c(N)ncnc43)c(N3CCC[C@](N)([C@H](O)C(F)F)C3)cn2)cc1F.Cl` [hydrochloric acid salt], the “hydrate formation / anhydrous form” value in series [3] is “observed to form hydrates”.
